Usually Ki stands for a dissociation constant, usually derived from enzyme kinetics or from competition with a known ligand. The term IC50 denotes the concentration at which inhibition is half-maximal.

In test [1] the test system is 3T3-L1 cells. Particulars: after 7 days; for expression of key adipogenic genes (C/EBPα, aP2, CD36, FASN, LPL, PPARγ), mRNA: normalized to β-actin.
Test [2] concerns 3T3-L1 cells. Nature of the test: Adipocyte differentiation assay, Oil Red O staining. Particulars: for adipocyte differentiation (Oil-red O staining) / % Oil Red staining: 1 μM; for % Oil Red staining: differentiated 3T3-L1 cells, ImageJ analysis.
For test [3], the target named is T1, GST-PPARγ LBD (Homo sapiens, UniProt P37231).
T1 construct: The GST-PPARγ LBD was labeled with a terbium-linked antibody; purchased Invitrogen
T1 sequence (P37231 238-503 limits assumed): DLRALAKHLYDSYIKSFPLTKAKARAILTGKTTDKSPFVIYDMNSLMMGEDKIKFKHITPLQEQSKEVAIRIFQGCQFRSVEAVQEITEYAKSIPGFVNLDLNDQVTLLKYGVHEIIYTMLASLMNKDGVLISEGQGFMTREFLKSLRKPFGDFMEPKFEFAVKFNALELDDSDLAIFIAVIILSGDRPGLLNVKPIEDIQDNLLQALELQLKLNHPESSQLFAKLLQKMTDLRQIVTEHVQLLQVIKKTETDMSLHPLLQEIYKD
The test is described as follows: LanthaScreen TR-FRET competition binding assay. How it is done: To determine the PPARγ binding affinities of the synthesized compounds, we performed competition experiments using LanthaScreen TR-FRET assays.
Figure 3 Characterization of VSP-51 binding. […] GST-PPARγ LBD and the fluorescent PPARγ ligand Fluormone™ were used at 0.5 nM of concentration, each. Terbium-coated anti-GST antibody was used at 4.95 nM of concentration. (A) LanthaScreen TR-FRET ratios for ligands at 1 and 10 μM of concentrations (n = 2, error bars = SEM). […] Concentrations are presented on a log10 scale (n = 2, error bars = SEM).
The GST-PPARγ LBD was labeled with a terbium-linked antibody and incubated with a fluorescent small molecule pan-PPAR ligand (Fluormone™ Pan-PPAR Green). Excitation of terbium fluorescence at 340 nm results in a time-resolved fluorescence energy transfer (TR-FRET) to bound Fluormone with an emission at 520 nm. Agonist binding was determined as decrease in FRET (ratio of emission at 520 nm to emission from terbium fluorescence at 495 nm) due to the displacement of the fluorescent tracer from the ligand binding domain upon agonist binding. The inhibition constant (ki) for competitor was calculated by applying the Cheng-Prusoff equation as following: […]
In general terms: Time-resolved FRET reads energy transfer from a long-lived donor to a nearby acceptor.

Regarding `CN(CCOc1ccc(CC2SC(=O)NC2=O)cc1)c1ccccn1` (stereo not shown) [Rosi, rosiglitazone, reference compound], the “expression of key adipogenic genes (C/EBPα, aP2, CD36, FASN, LPL, PPARγ), mRNA” value in test [1] is recorded as “robustly stimulated”. Besides, the “adipocyte differentiation (Oil-red O staining)” value in test [2] (3T3-L1 cells) was “potently stimulated adipocyte differentiation”. The “% Oil Red staining” value in test [2] was determined as 85.16%.

Take `O=C(NCc1ccccc1)c1ccc2c(ccn2Cc2ccc(Cl)c(F)c2)c1` [VSP-51]: the “relative PPARγ binding affinity (reduction of TR-FRET emission ratio)” value in test [3] (1 and 10 μM compound) is recorded as “highest binding affinity for PPARγ among the synthesized compounds”. Besides, the Ki in test [3] (calculated by the Cheng-Prusoff equation, tracer 5 nM, kd 2.8 nM) is 8.06 nM. In test [3] (displacement of Fluormone Pan-PPAR Green, dose-response 0.01 pM - 100 μM, n = 2), this compound came in with an IC50 of 22.4 nM. Also, in test [1], the “expression level of Adiponectin, mRNA” value is listed as “efficiently increased”; the “expression of PTPIB, mRNA” value is reported as “remarkably inhibited”; the “expression of SOCS3, mRNA” value is reported as “remarkably inhibited”; the “expression of key adipogenic genes (C/EBPα, aP2, CD36, FASN, LPL, PPARγ), mRNA” value is listed as “little or no change”. For the same compound, in test [2] (3T3-L1 cells), the “adipocyte differentiation (Oil-red O staining)” value is reported as “very few cells were stained”. Besides, the “total number of adipocytes” value in test [2] (3T3-L1 cells, VSP-51 added during Rosi treatment) is listed as “clear decrease”. For the same compound, the “% Oil Red staining” value in test [2] worked out at 5.95%.
